Legend:
[1] = test system: DNA of pEGFP-N3; assay: Gel electrophoresis shift assay (binding/complexation of pDNA); conditions: pEGFP-N3 plasmid, N/P ratios between 0 and 10, FIG. 3
Protocol: Plasmid pEGFP-N3, used for the preparation of the DNA complexes and the transfection assay, is a 4729-bp (base pairs) plasmid. The quantities of polycationic amphiphilic βCD derivatives used were calculated on the basis of the desired DNA concentration, 0.02 mg/ml (50 μM phosphate), the N/P ratio, the molecular weight and the number of positive charges in the selected CD derivative. The experiments were performed for N/P 5, 10, 30 and 50. The DNA was diluted in milli-Q water to a final phosphate concentration of 50 μM; subsequently, the desired quantity of CD derivative was added from a 20-mg/ml solution (1:2 of Me2SO-water). The preparation was stirred with a vortex for a few seconds and incubated for 30 minutes.
The binding capacity of the polycationic amphiphilic DNA-βCD complex was analysed by gel electrophoresis. The stock solutions of βCD derivatives were prepared in 1:2 Me2SO-water, and the DNA was dissolved in 150 mM NaCl. The DNA of pEGFP-N3 (10 μl at 0.1 μg/μl) was mixed with an equal volume of βCD derivative using N/P ratios ranging between 0 and 10, and incubated for 30 min at room temperature prior to the addition of loading buffer (2 μl). One aliquot (5 μl) of each sample was subjected to agarose gel electrophoresis (0.8% w/v) in TAE buffer (40 mM Tris-acetate, 1 mM EDTA). The electrophoresis was performed at 7 V/cm and the gels were stained with ethidium bromide following the electrophoresis. The quantification of the intensity of the bands was performed with the NIH Image software (Rasband et al. 1995. Microbeam Analysis Soc. J. 4, 137-149). A value of 100 was assigned to the intensity of the band for naked DNA.

[2] = test system: DNA of pEGFP-N3 (DNase I digestion); assay: DNase protection assay of pDNA complexes; conditions: for protection of pDNA against degradation by DNase: pEGFP-N3 complexes, N/P=5, DNase I 45 minutes at 37° C., FIG. 4
Protocol: The DNA of pEGFP-N3 (10 μl at 0.1 μg/μl) was mixed with an equal volume of stock solution of βCD derivative using N/P=5, and incubated for 30 min at room temperature. 15 μl of a DNase I solution (0.1 mg/ml in 50 mM Tris-HCl, pH 8, 2000 U/mg) were added to the mixture and it was incubated for 45 minutes at 37° C. Following the digestion, 20 μl of a 10% SDS solution were added and the samples were incubated for 2 h at 85° C. Finally, one aliquot (20 μl) of each sample was subjected to agarose gel electrophoresis (0.8% w/v) in TAE buffer.

[3] = test system: CHO-k1 cells; assay: In vitro gene transfection of pEGFP-N3 complexes, GFP fluorescence; assay type: cell-based, Chinese hamster; conditions: pEGFP-N3 plasmid, N/P ratios between 0.1 and 20, FIG. 5
Protocol: Ovarian cells of wild-type Chinese hamsters (CHO-k1; no. ATCC CCL-61) were cultured in Dulbecco's modified Eagle's medium (DMEM) supplemented with 10% (v/v) of foetal bovine serum, 2 mM glutamine plus, 100 U/ml of penicillin and […] of streptomycin. Prior to the transfection, the cells were seeded in 24 well plates and incubated for 24 h, to reach an 80%-90% cell confluence. For the transfection experiments, plasmid pEGFP-N3 (1 μg) was mixed with the corresponding CD derivative at N/P ratios ranging between 0.1 and 20, at room temperature for 20 minutes, in a final volume of 20 μl. The mixture was diluted to 0.5 ml with DMEM without serum and added to each well. The untransfected cells and the naked pEGFP-N3 were used as negative controls. As a positive control, a transfection experiment was performed using 1 μl of Lipofectamine™ 2000 (Invitrogen) and 1.0 μg of DNA, following the manufacturer's instructions. The cells were incubated with the DNA-polycationic amphiphilic βCD mixtures for 18 h; subsequently, the transfection medium was eliminated and the cells were further cultured in DMEM medium plus 10% FBS for an additional 48-h period.
The transfected cells were washed three times with PBS and 600 μl of 0.5% triton X-100 in PBS. The plates were stirred for 10 min at room temperature, the lysate was recovered and the fluorescence was quantified in a Shimadzu RF-5301PC fluorimeter with an excitation wavelength of 460 nm (5 nm) and an emission wavelength of 510 nm (10 nm). The protein concentration was measured using the Bio-Rad protein assay (Hercules, Calif., USA).

| protection of pDNA against the environment ([2]; 10:pDNA complexes, N/P values greater than 4) | Substance | complexation capacity / compaction of pDNA, stability of the CD:pDNA complex [1] | transfection efficiency [3] | protection of pDNA against degradation by DNase [2] |
| --- | --- | --- | --- | --- |
| complete protection | Heptakis[6-(4-(2,2-diaminoethylaminomethyl)-1H-1,2,3-triazole-1-yl)-6-deoxy-2,3-di-O-hexanoyl]cyclomaltoheptaose tetradecahydrochloride [Compound 10] | stable 10:pDNA complexes | surprisingly high transfection efficiencies, analogous to those obtained using Lipofectamine™ 2000 | – |
| – | Heptakis[6-(4-(2,2-diaminoethyl)aminomethyl)-1H-1,2,3-triazole-1-yl)-6-deoxy-2,3-di-O-myristoyl]cyclomaltoheptaose [Compound 11] | did not modify the complexation efficiency | drastically reduced the transfection capacity | – |
| – | Heptakis[6(2-(4-(2,2-diaminoethylaminomethyl)-1H-1,2,3-triazole-1-yl)acetamidoethylthio)-6-deoxy-2,3-di-O-hexanoyl]cyclomaltoheptaose [Compound 17] | the rigid motif was more advantageous than the flexible architecture | the rigid motif was more advantageous than the flexible architecture | the rigid motif was more advantageous than the flexible architecture |
| – | Heptakis[6-(4-aminomethyl-1H-1,2,3-triazole-1-yl)-6-deoxy-2,3-di-O-hexanoyl]cyclomaltoheptaose heptahydrochloride [Compound 9] | improved complexation capacities of pDNA as compared to non-amphiphilic analogue 18 | transfection levels remained very low | plasmid still remains accessible to DNase |
| – | Heptakis[6(2-(4-aminomethyl-1H-1,2,3-triazole-1-yl)acetamidoethylthio)-6-deoxy-2,3-di-O-hexanoyl]cyclomaltoheptaose [Compound 16] | moderate increases | moderate increases | moderate increases |

From patent US20120129919A1, “POLYCATIONIC AMPHIPHILIC CYCLOOLIGOSACCHARIDES AND THE USE THEREOF AS MOLECULAR TRANSPORTERS” (priority 2009, published 2012)
